The results in this text go back to ChEMBL document CHEMBL4346671, “Synthesis and bioevaluation of diarylpyrazoles as antiproliferative agents” (Eur J Med Chem, 2019).

Calls of active or inactive are those of the source. No cut-off for these calls is given here.

One assay deals with KB. Put plainly: Antiproliferative activity against human KB cells measured after 72 hrs by MTT assay. Type of assay: functional, cell-based. A general note: Tetrazolium assays rely on reduction of a dye to a coloured formazan, in cell work by metabolically active cells.
For assay [1], the system named is SGC-7901. Put plainly: Antiproliferative activity against human SGC7901 cells measured after 72 hrs by MTT assay. The assay is classed as functional, cell-based. As to conditions: SGC-7901, 72 h.
Another assay deals with HT-1080. Put plainly: Antiproliferative activity against human HT1080 cells measured after 72 hrs by MTT assay. Type of assay: functional, cell-based. Conditions: HT-1080, 72 h.
The target of assay [2] is T1, Tubulin (Sus scrofa) (UniProt P02554+P02550). As to conditions: 4 uM.
T1 sequence (P02550 whole entry, looked up): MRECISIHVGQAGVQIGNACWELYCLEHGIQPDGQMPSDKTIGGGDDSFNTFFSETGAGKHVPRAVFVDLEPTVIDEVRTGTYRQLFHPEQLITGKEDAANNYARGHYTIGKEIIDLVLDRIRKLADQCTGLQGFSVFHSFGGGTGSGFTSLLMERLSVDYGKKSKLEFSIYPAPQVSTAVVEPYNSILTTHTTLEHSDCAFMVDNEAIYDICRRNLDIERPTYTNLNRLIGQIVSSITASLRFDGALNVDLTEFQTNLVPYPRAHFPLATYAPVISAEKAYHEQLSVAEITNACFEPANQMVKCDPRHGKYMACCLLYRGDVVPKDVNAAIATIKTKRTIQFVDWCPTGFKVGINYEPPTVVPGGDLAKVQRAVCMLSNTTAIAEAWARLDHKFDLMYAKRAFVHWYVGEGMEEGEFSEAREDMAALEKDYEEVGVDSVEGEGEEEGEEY
T1 sequence (P02554 whole entry, looked up): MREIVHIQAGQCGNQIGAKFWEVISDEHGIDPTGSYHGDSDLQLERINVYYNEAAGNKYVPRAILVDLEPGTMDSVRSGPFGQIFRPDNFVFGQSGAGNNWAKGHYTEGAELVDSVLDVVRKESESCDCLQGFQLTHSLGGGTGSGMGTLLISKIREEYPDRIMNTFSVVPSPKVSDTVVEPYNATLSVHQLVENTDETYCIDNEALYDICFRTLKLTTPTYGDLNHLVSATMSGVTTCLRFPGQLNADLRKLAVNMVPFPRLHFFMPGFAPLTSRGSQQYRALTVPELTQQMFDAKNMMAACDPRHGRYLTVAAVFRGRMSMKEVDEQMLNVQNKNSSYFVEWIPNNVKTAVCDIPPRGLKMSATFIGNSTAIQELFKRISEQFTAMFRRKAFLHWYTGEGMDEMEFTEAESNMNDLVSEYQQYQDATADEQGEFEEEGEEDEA
Description: Inhibition of porcine brain tubulin polymerization at 4 uM preincubated before GTP addition and measured at 1 min intervals for 90 mins by fluorescence based assay
Assay [3] has as its system SGC-7901. The assay can be described thus: Cell cycle arrest in human SGC7901 cells assessed as increase in cell population at G2/M phase at 2 fold IC50 concentration measured after 24 hrs by propidium iodide staining based FACScan flow cytometry. Type of assay: functional. On the technique in general: A flow cytometer gives signals particle by particle.
In assay [4] the test system is SGC-7901. The assay can be described thus: Cell cycle arrest in human SGC7901 cells assessed as increase in cell population at G2/M phase at 2 fold IC50 concentration measured after 12 hrs by propidium iodide staining based FACScan flow cytometry. Type of assay: functional.
The target of assay [5] is T2, Tubulin (Homo sapiens) (UniProt P68371+Q9H4B7+P0DPH7+P68366+Q13509+Q71U36+P04350+Q3ZCM7+P07437+P68363+Q9BQE3+Q6PEY2+Q13885+Q9BVA1+Q9BUF5). Put plainly: Induction of microtubule depolymerization in human SGC7901 cells assessed as change in microtubule morphology at 2 fold antiproliferative IC50 measured after 24 hrs by DAPI staining based fluorescence microscopy. The assay is classed as cell-based.

Assay [6] concerns SGC-7901. Put plainly: Cell cycle arrest in human SGC7901 cells assessed as decrease in cell population at G2/M phase at 2 fold IC50 concentration measured after 36 hrs by propidium iodide staining based FACScan flow cytometry. The assay is classed as functional.
Assay [7] has as its system SGC-7901. The assay can be described thus: Cell cycle arrest in human SGC7901 cells assessed as increase in cell population at sub-G1 phase at 2 fold IC50 concentration measured after 36 hrs by propidium iodide staining based FACScan flow cytometry. The assay is classed as functional.
For assay [8], the target named is T1, Tubulin (Sus scrofa). The assay can be described thus: Inhibition of porcine brain tubulin polymerization at 3 to 20 uM preincubated before GTP addition and measured at 1 min intervals for 90 mins by fluorescence based assay.
Assay [9] concerns the target T2, Tubulin (Homo sapiens). The assay can be described thus: Inhibition of microtubule formation in human SGC7901 cells assessed as mitotic catastrophe at 2 fold IC50 concentration measured after 24 hrs by DAPI staining based fluorescence microscopy. The assay is classed as cell-based.
The target of another assay is Tubulin (Sus scrofa, UniProt P02554+P02550). Put plainly: Inhibition of porcine brain tubulin polymerization preincubated before GTP addition and measured at 1 min intervals for 90 mins by fluorescence based assay.
For assay [10], the system named is SGC-7901. Put plainly: Cell cycle arrest in human SGC7901 cells assessed as accumulation of cell population in G2/M phase at 2 fold IC50 concentration for 12 to 72 hrs by propidium iodide staining based FACScan flow cytometry. The assay is classed as functional. As to conditions: TDE = time-dependent effect.
The subject of assay [11] is SGC-7901. Put plainly: Cell cycle arrest in human SGC7901 cells assessed as increase in cell population at sub-G1 phase at 2 fold IC50 concentration measured after 72 hrs by propidium iodide staining based FACScan flow cytometry. Type of assay: functional.
Assay [12] deals with SGC-7901. Put plainly: Cell cycle arrest in human SGC7901 cells assessed as increase in cell population at sub-G1 phase at 2 fold IC50 concentration measured after 48 hrs by propidium iodide staining based FACScan flow cytometry. The assay is classed as functional.
The test system of assay [13] is SGC-7901. The assay can be described thus: Cell cycle arrest in human SGC7901 cells assessed as decrease in cell population at G2/M phase at 2 fold IC50 concentration measured after 48 hrs by propidium iodide staining based FACScan flow cytometry. The assay is classed as functional.
Assay [14] relates to SGC-7901. The assay can be described thus: Induction of polyploidy in human SGC7901 cells at 2 fold IC50 concentration measured after 72 hrs by propidium iodide staining based FACScan flow cytometry. Type of assay: functional, cell-based.
In assay [15] the test system is SGC-7901. The assay can be described thus: Cell cycle arrest in human SGC7901 cells assessed as decrease in cell population at G2/M phase at 2 fold IC50 concentration measured after 72 hrs by propidium iodide staining based FACScan flow cytometry. The assay is classed as functional.
In assay [16] the target is T2, Tubulin (Homo sapiens). The assay can be described thus: Inhibition of microtubule formation in human SGC7901 cells at 2 fold IC50 concentration measured after 24 hrs by DAPI staining based fluorescence microscopy. The assay is classed as cell-based.

The term IC50 denotes the midpoint of a concentration-inhibition curve. A high value points to a need for much substance. As to `CCOc1ccc(-c2c(-c3cc(OC)c(OC)c(OC)c3)cnn2C(C)=O)cc1`, the IC50 is 110 nM in the assay with KB, 200 nM in the assay on SGC-7901 [1] and 21 nM in the assay with HT-1080.

As for `COc1cc(-c2n[nH]cc2-c2ccc(F)c(F)c2)cc(OC)c1OC`, the IC50 with KB amounted to 32800 nM; in the assay with SGC-7901 [1], 14000 nM; in the assay with HT-1080, 19300 nM.

As for `COc1cc(-c2n[nH]cc2-c2ccc(O)cc2)cc(OC)c1OC`, the IC50 in the assay with KB turned out to be 8470 nM; in the assay with SGC-7901 [1] it was 15400 nM; in the assay on HT-1080, 10000 nM.

`COc1ccc(-c2cnn(C(C)=O)c2-c2cc(OC)c(OC)c(OC)c2)cc1`: the IC50 turned out to be 28 nM in the assay on KB, 13 nM with SGC-7901 [1] and 96 nM in the assay with HT-1080.

Turning to `COc1ccc(-c2c[nH]nc2-c2cc(OC)c(OC)c(OC)c2)cc1OC`, the IC50 with KB amounted to 5440 nM; with SGC-7901 [1], 36500 nM; in the assay on HT-1080, 4840 nM.

Regarding `COc1cccc(-c2c[nH]nc2-c2cc(OC)c(OC)c(OC)c2)c1`, the IC50 in the assay on KB was 1500 nM; in the assay with SGC-7901 [1] it was 2200 nM; in the assay on HT-1080 it was 4070 nM.

On to `COc1ccc(-c2cn[nH]c2-c2cc(OC)c(OC)c(OC)c2)cc1O`, for which the IC50 with KB amounted to 23 nM; in the assay on SGC-7901 [1], 31 nM; with HT-1080 it was 30 nM.

Regarding `COc1ccc(-c2c(-c3cc(OC)c(OC)c(OC)c3)cnn2C(C)=O)cc1OC`, the IC50 in the assay with KB was 700 nM; in the assay on SGC-7901 [1] it was 2030 nM; with HT-1080, 1210 nM.

As for `COc1ccc(-c2n[nH]cc2-c2cc(OC)c(OC)c(OC)c2)cc1OCc1ccccc1`, the figures for the IC50 in the assay on KB, with SGC-7901 [1] and in the assay with HT-1080 were 86200 nM, 28200 nM and 20800 nM, respectively.

Regarding `COc1cc(-c2c(-c3ccc(OC(F)(F)F)cc3)cnn2C(C)=O)cc(OC)c1OC`, the IC50 in the assay on KB came to 10800 nM; in the assay with SGC-7901 [1] it was 13700 nM; in the assay on HT-1080 it was 19500 nM.

Take `COc1cc(-c2c(-c3ccc(O)cc3)cnn2C(C)=O)cc(OC)c1OC`: the values for the IC50 in the assay on KB, in the assay on SGC-7901 [1] and in the assay on HT-1080 were 5080 nM, 4870 nM and 2520 nM, respectively.

In the case of `COc1ccc(-c2cnn(C(C)=O)c2-c2cc(OC)c(OC)c(OC)c2)cc1OCc1ccccc1`, the IC50 is 6720 nM in the assay on KB, 10400 nM with SGC-7901 [1] and 12200 nM in the assay with HT-1080.

Turning to `COc1cc(-c2c(-c3ccc(OCc4ccccc4)cc3)cnn2C(C)=O)cc(OC)c1OC`, the IC50 with KB stood at 129000 nM; with SGC-7901 [1], 14400 nM; in the assay on HT-1080 it was 44900 nM.

For the compound `COc1ccc(-c2c(-c3cc(OC)c(OC)c(OC)c3)cnn2C(C)=O)cc1`, the results for the IC50 in the assay with KB, in the assay on SGC-7901 [1] and with HT-1080 were 23 nM, 31 nM and 14 nM, respectively.

On to `COc1ccc(-c2c[nH]nc2-c2cc(OC)c(OC)c(OC)c2)cc1OCc1ccccc1`, for which the results for the IC50 with KB, in the assay with SGC-7901 [1] and with HT-1080 were 7100 nM, 9260 nM and 10000 nM, respectively.

As for `COc1ccc(/C=C\c2cc(OC)c(OC)c(OC)c2)cc1O` [COMBRETASTATIN A4], the IC50 was 250 nM in the assay with KB, 130 nM with SGC-7901 [1] and 51 nM with HT-1080. At Tubulin (Sus scrofa) [2], the inhibition result was “Active”. In addition, the result with SGC-7901 [3], in the assay with SGC-7901 [4] and at Tubulin (Homo sapiens) [5] was Active.

Regarding `COc1ccc(-c2c[nH]nc2-c2cc(OC)c(OC)c(OC)c2)cc1`, the values for the IC50 in the assay with KB, in the assay with SGC-7901 [1] and in the assay on HT-1080 were 72 nM, 180 nM and 80 nM, respectively.

Turning to `CCOc1ccc(-c2cnn(C(C)=O)c2-c2cc(OC)c(OC)c(OC)c2)cc1`, the IC50 in the assay with KB is 36 nM; in the assay on SGC-7901 [1], 15 nM; in the assay on HT-1080 it was 19 nM.

With `COc1ccc(-c2cnn(C(C)=O)c2-c2cc(OC)c(OC)c(OC)c2)cc1O`, the IC50 was determined as 33 nM with KB, 15 nM in the assay on SGC-7901 [1] and 17 nM with HT-1080.

With `COc1ccc(-c2c(-c3cc(OC)c(OC)c(OC)c3)cnn2C(C)=O)cc1OCc1ccccc1`, the concentration for half-maximal inhibition (IC50) with KB was 84200 nM; in the assay on SGC-7901 [1] it was 30100 nM; in the assay with HT-1080 it was 18400 nM.

For `CCOc1ccc(-c2c[nH]nc2-c2cc(OC)c(OC)c(OC)c2)cc1`, the IC50 with KB came to 35 nM; in the assay with SGC-7901 [1], 30 nM; in the assay on HT-1080, 17 nM.

As for `CCOc1ccc(-c2n[nH]cc2-c2cc(OC)c(OC)c(OC)c2)cc1`, the IC50 turned out to be 65 nM in the assay with KB, 15 nM with SGC-7901 [1] and 21 nM with HT-1080.

As for `COc1ccc(-c2n[nH]cc2-c2cc(OC)c(OC)c(OC)c2)cc1OC`, the IC50 turned out to be 620 nM with KB, 3810 nM with SGC-7901 [1] and 1920 nM in the assay on HT-1080.

As to `COc1cc(-c2n[nH]cc2-c2ccc(OC(F)(F)F)cc2)cc(OC)c1OC`, the IC50 in the assay with KB was 2870 nM; in the assay with SGC-7901 [1], 1340 nM; in the assay on HT-1080 it was 1340 nM.

For the compound `COc1ccc(-c2c(-c3cc(OC)c(OC)c(OC)c3)cnn2C(C)=O)cc1O`, the outcome with SGC-7901 [6], in the assay with SGC-7901 [7], in the assay with SGC-7901 [3], in the assay with SGC-7901 [11], with SGC-7901 [4] and in the assay with SGC-7901 [12] was Active. Besides, the outcome on Tubulin (Homo sapiens) [5], in the assay with SGC-7901 [13], in the assay on SGC-7901 [14] and with SGC-7901 [15] was Active. Besides, at Tubulin (Sus scrofa) [8], the inhibition entry was “Dose-dependent effect”. For the same compound, the inhibition result at Tubulin (Homo sapiens) [9] and on Tubulin (Homo sapiens) [16] was “Active” throughout. For the same compound, the IC50 on Tubulin came out at 7730 nM; with KB it was 22 nM; with SGC-7901 [1] it was 9.3 nM; in the assay on HT-1080, 12 nM. In the assay on SGC-7901 [10], the Activity entry is “Tde”.

Turning to `COc1ccc(-c2[nH]ncc2-c2cc(OC)c(OC)c(OC)c2)cc1O`, the IC50 in the assay with KB was 60 nM; in the assay with SGC-7901 [1], 32 nM; in the assay on HT-1080, 23 nM.

As for `COc1ccc(-c2n[nH]cc2-c2cc(OC)c(OC)c(OC)c2)cc1`, the half-maximal inhibitory concentration (IC50) in the assay with KB was found to be 25 nM; in the assay on SGC-7901 [1], 44 nM; in the assay with HT-1080, 26 nM.

Regarding `COc1ccc(-c2cnn(C(C)=O)c2-c2cc(OC)c(OC)c(OC)c2)cc1OC`, the figures for the IC50 in the assay on KB, with SGC-7901 [1] and in the assay on HT-1080 were 4580 nM, 4820 nM and 1330 nM, respectively.

Turning to `COc1cc(-c2n[nH]cc2-c2ccc(OCc3ccccc3)cc2)cc(OC)c1OC`, the 50% inhibitory concentration (IC50) with KB was found to be 6720 nM; in the assay on SGC-7901 [1] it was 13000 nM; in the assay on HT-1080, 8130 nM.
